# Data reported in patent publication US10508104B2, “6-hydroxy-5-(phenyl/heteroarylsulfonyl)pyrimidin-4(1H)-one as APJ agonists” (Bristol-Myers Squibb Company, priority 2016, dated 2019).
# Molecular target: human APJ receptor (Homo sapiens (Human), UniProt P35414)
# Test: Intracellular cAMP accumulation assay (APJ hcAMP, HTRF)
# Type: cell-based
# Conditions: HEK293 cells stably expressing human APJ receptor; inhibition of forskolin-mediated cAMP production; read-out: Human APJ cAMP EC50 Potency range
# How it was run: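 HEK293 cells stably expressing human APJ, 5,000 per well, incubated 30 min at rt with compound, […] and 2 μM forskolin. cAMP measured by HTRF against a cAMP standard curve as inhibition of forskolin-driven production. EC50 from variable-slope sigmoidal fit.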
# Chain of human APJ receptor (P35414 whole entry): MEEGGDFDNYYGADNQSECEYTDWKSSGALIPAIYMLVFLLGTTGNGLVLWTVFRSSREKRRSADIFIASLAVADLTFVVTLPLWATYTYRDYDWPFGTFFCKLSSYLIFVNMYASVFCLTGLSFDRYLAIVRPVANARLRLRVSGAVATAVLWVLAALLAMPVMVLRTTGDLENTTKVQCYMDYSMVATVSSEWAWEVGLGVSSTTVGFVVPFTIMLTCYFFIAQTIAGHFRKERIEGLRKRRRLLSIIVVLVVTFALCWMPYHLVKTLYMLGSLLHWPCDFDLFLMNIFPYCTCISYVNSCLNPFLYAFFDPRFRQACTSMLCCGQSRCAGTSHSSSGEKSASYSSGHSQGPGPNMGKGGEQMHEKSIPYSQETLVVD
row,EC50 [nM],SMILES
1,0.01 to 10,"CCCCc1nc(=O)c(S(=O)(=O)c2ccc(-c3ccnc(F)c3C)cc2)c(O)n1[C@@H](CC)c1cc(F)cc(F)c1 [Example 446, 2-butyl-1-[(1S)-1-(3,5-difluorophenyl)propyl]-5-[4-(2-fluoro-3-methylpyridin-4-yl)benzenesulfonyl]-6-hydroxy-1,4-dihydropyrimidin-4-one]"
2,0.01 to 10,"CCCCc1nc(=O)c(S(=O)(=O)c2ccc(-c3cccnc3C)cc2)c(O)n1[C@@H](CC)c1cc(F)cc(C#N)c1 [Example 449, 3-[(1S)-1-{2-butyl-6-hydroxy-5-[4-(2-methylpyridin-3-yl)benzenesulfonyl]-4-oxo-1,4-dihydropyrimidin-1-yl}propyl]-5-fluorobenzonitrile]"
3,0.01 to 10,"CCCCc1nc(=O)c(S(=O)(=O)c2ccc(-c3ccncc3C)cc2)c(O)n1[C@@H](CC)c1cc(F)cc(C#N)c1 [Example 450, 3-[(1S)-1-{2-butyl-6-hydroxy-5-[4-(3-methylpyridin-4-yl)benzenesulfonyl]-4-oxo-1,4-dihydropyrimidin-1-yl}propyl]-5-fluorobenzonitrile]"
4,0.01 to 10,"CCCCc1nc(=O)c(S(=O)(=O)c2ccc(-c3ccc(F)nc3C)cc2)c(O)n1[C@@H](CC)c1cc(F)cc(C#N)c1 [Example 453, 3-[(1S)-1-{2-butyl-5-[4-(6-fluoro-2-methylpyridin-3-yl)benzenesulfonyl]-6-hydroxy-4-oxo-1,4-dihydropyrimidin-1-yl}propyl]-5-fluorobenzonitrile]"

# More lines, now with the values behind:
row,SMILES,EC50 [nM]
1,"CCOCc1nc(=O)c(S(=O)(=O)c2ccc(-c3cccnc3C)cc2)c(O)n1[C@@H](CC)c1cccc(C#N)c1 [Example 445, 3-[(1S)-1-[2-(ethoxymethyl)-6-hydroxy-5-[4-(2-methylpyridin-3-yl)benzenesulfonyl]-4-oxo-1,4-dihydropyrimidin-1-yl]propyl]benzonitrile]",0.01 to 10
2,"CCCCc1nc(=O)c(S(=O)(=O)c2ccc(-c3ccncc3C)cc2)c(O)n1[C@H](c1cccc(C#N)c1)C(C)C [Example 447, 3-[(1S)-1-{2-butyl-6-hydroxy-5-[4-(3-methylpyridin-4-yl)benzenesulfonyl]-4-oxo-1,4-dihydropyrimidin-1-yl}-2-methylpropyl]benzonitrile]",0.01 to 10
3,"CCCCc1nc(=O)c(S(=O)(=O)c2ccc(-c3cccnc3C)cc2)c(O)n1[C@H](c1cccc(C#N)c1)C(C)C [Example 448, 3-[(1S)-1-{2-butyl-6-hydroxy-5-[4-(2-methylpyridin-3-yl)benzenesulfonyl]-4-oxo-1,4-dihydropyrimidin-1-yl}-2-methylpropyl]benzonitrile]",0.01 to 10
4,"CCCCc1nc(=O)c(S(=O)(=O)c2ccc(-c3ccnc(F)c3C)cc2)c(O)n1[C@H](c1cccc(C#N)c1)C(C)C [Example 451, 3-[(1S)-1-{2-butyl-5-[4-(2-fluoro-3-methylpyridin-4-yl)benzenesulfonyl]-6-hydroxy-4-oxo-1,4-dihydropyrimidin-1-yl}-2-methylpropyl]benzonitrile]",0.01 to 10
5,"CCCCc1nc(=O)c(S(=O)(=O)c2ccc(-c3ccc(F)nc3C)cc2)c(O)n1[C@H](c1cccc(C#N)c1)C(C)C [Example 452, 3-[(1S)-1-{2-butyl-5-[4-(6-fluoro-2-methylpyridin-3-yl)benzenesulfonyl]-6-hydroxy-4-oxo-1,4-dihydropyrimidin-1-yl}-2-methylpropyl]benzonitriIe]",0.01 to 10
6,"CCCCc1nc(=O)c(S(=O)(=O)c2ccc(-c3ccc(F)nc3C)cn2)c(O)n1[C@@H](CC)c1cccc(C#N)c1 [Example 454, 3-[(1S)-1-[2-butyl-5-({6′-fluoro-2′-methyl-[3,3′-bipyridine]-6-yl}sulfonyl)-6-hydroxy-4-oxo-1,4-dihydropyrimidin-1-yl]propyl]benzonitrile]",0.01 to 10
7,"CCCCc1nc(=O)c(S(=O)(=O)c2ccc(-c3cccnc3C)cn2)c(O)n1[C@@H](CC)c1cccc(C#N)c1 [Example 455, 3-[(1S)-1-[2-butyl-6-hydroxy-5-({2′-methyl-[3,3′-bipyridine]-6-yl}sulfonyl)-4-oxo-1,4-dihydropyrimidin-1-yl]propyl]benzonitrile]",0.01 to 10
